Measured values from patent US8623601B2, “Methods of diagnosing cancer” (Cognosci, Inc., priority 2011, dated 2014).
Where two headings read alike, the source gives them in different places. *1 amine or outer side, *2 acyl side, *3 side chain or, on linkers, in order; H or OH if unused. Bridges are numbered along the chain shown (N, C = ends). Roman numbers before positions name the chains, in order. [ ]: non-standard residue; d: D form. BMOE = O=C1CC([*:1])C(=O)N1CCN1C(=O)CC([*:2])C1=O; Aib = CC(C)(N)C(=O)O

How the values were obtained:
[1] = system: CLL cells; experiment: CLL cell cytotoxicity, MTS assay; assay type: cell-based, human; details: 72 hours
Protocol: (§1) For cytotoxicity assays, 3×10^6 CLL cells/well were cultured in 24 well tissue culture plates in 1.5 mL of Hybridoma SFM™ (Gibco, Long Island, N.Y.) as described by Levesque et al. (Levesque et al. 2001) (Levesque et al. 2003) All cultures were incubated at 37° C., 5% CO2 in air. […] (Levesque et al. 2003)
(§2) Based on the induction of apoptosis in CLL cells, we tested several analogs of COG449 for cytotoxicity against CLL cells freshly isolated from a number of patients and against normal B-cells from healthy volunteers (Table 4). Cells were cultured with the agents for 72 hours, and the viable cells were assessed for cytotoxicity using the MTS assay. […] We also analyzed the effect of shRNA-mediated knockdown of SET on the growth of B-cell lymphoma cell lines.

[2] = Cytotoxicity to normal B-cells from healthy volunteers, MTS assay; assay type: cell-based, human; details: human
Text: (§3) CLL was diagnosed according to the NCl Working Group criteria (Hallek et al. 2008). Healthy volunteers and CLL patients from the Duke University and Durham Va. Medical Centers were enrolled in IRB-approved research protocols to collect clinical data and blood. Subjects gave signed informed consent prior to phlebotomy, in accordance with the Declaration of Helsinki. Blood was collected from participants into heparin-tubes, and CLL cells were purified as noted before (Weinberg et al. 2007). Briefly, CLL cells were isolated using the RosetteSep® B cell enrichment cocktail (catalog #15024/15064; Stem Cell Technologies, Vancouver, BC, Canada) according to the manufacturer's directions. This method yielded CLL cell purity of greater than 95% CD5+CD19+ B-cells as determined by flow cytometry. Normal B-lymphocytes were isolated using the EasySep® B-cell enrichment cocktail (catalog #15024/15064; Stem Cell Technologies, Vancouver, BC, Canada) according to the manufacturer's directions, with a purity of >94% CD 19+ lymphocytes.
as §1, §2

[3] = system: normal B-cells; experiment: as above; assay type: cell-based, human; details: normal B-cells from healthy volunteers, 72 hours, read-out: Normal ED50
Text: as §3, §1, §2

[4] = system: SET (α and β isoforms); details: 10 μM biotin-labeled peptide, pull-down on beads, Western blot
Protocol: Complexes bound to Neutravidin-Agarose (NA) beads were then detected by Western blotting. Lane 1 contains 20 μg of cell lysate as a loading control. […] Lysates were incubated with biotin reagents for 1 hr before addition of NA beads and then incubated for an additional hour. After rigorous washing, the beads were boiled in SDS PAGE buffer, separated by PAGE and blotted to nitrocellulose.
CLL cells were lysed in NP40 buffer (50 mM Tris, 0.2% NP40, 150 mM NaCl) by a single freeze thaw cycle. Lysate protein concentration was adjusted to 5 mg/mL. Streptavidin agarose beads (1 mL) were washed with 10 mL of NP40 buffer, and 0.5 mL of beads was added to 1 mL of extract. ABeads were then collected by filtration through a disposable mini-column (Bio-Rad), and the flow-through extract was collected for analysis. Following washing with 100 mL of chilled NP40 buffer, the beads were removed from the column, collected by centrifugation, and 75 μL of 4× Laemmli buffer was added. Beads were vortexed and heated to 90° C. for 10 min to ensure that all proteins were released from the beads. Proteins were separated by SDS PAGE and Western blotting was used to determine if the COG133 and COG112 peptides bound to both isoforms of SET from a CLL patient sample.

[5] = system: Ramos cells; experiment: Growth inhibition / cytotoxicity in Ramos NHL cells; assay type: cell-based, human
Protocol: FIG. 6: SET antagonism is cytotoxic to CLL cells and inhibits NHL cell growth in vitro. (A) Dose response curves for COG445 treatment of CLL cells from 7 patients or normal B-cells from 5 volunteers. (B) Dose response curves for COG449 treatment on CLL cells from 7 patients. (C) Raji NHL cells were transduced with SET shRNA or control lentivirus and knockdown was assessed by Western blotting from two samples of each.
FIG. 7: Cytotoxicity of COG449 can be modulated by a PP2A inhibitor in Ramos cells. Ramos cells were pretreated for 5 minutes with or without 1 nM OA before treatment with 1 μM COG449. After 24 hours, cytotoxicity was assessed using the […] assay reagent to detect viable cells.
as §2

[6] = CLL cells from 7 patients, read-out: ED50 of cytotoxicity to CLL cells
[7] = CLL cells freshly isolated from patients, read-out: CLL ED50

Chain of SET (α and β isoforms) (Q01105 38-290 limits assumed): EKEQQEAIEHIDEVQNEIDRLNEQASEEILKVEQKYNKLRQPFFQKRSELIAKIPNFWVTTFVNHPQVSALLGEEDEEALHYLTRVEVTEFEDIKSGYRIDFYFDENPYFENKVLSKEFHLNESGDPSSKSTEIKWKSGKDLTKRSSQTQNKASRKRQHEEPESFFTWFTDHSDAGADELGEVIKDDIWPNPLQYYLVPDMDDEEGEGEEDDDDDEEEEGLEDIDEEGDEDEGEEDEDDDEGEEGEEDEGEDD

Substance	EC50 [3] [µM]	EC50 [1, 7] [µM]	also measured
I: Ac-RQIKIWFQNRRMKWKKCLRVRLASHLRKLRKRLL-NH2 / II: Ac-RQIKIWFQNRRMKWKKCLRVRLASHLRKLRKRLL-NH2 (disulfide I:17-II:17 (inferred)) [COG445]	> 10		EC50 [1, 6]: 0.11 µM; EC50 at 72 h [2]: ≥ 10 µM
RQIKIWFQNRRMKWKK-C-LRVRLASHLRKLRKRLL [COG112]	> 20	1.4 ± 0.7	binding to SET isoforms in CLL cell lysate [4]: binds to both SET isoforms
LRVRLASHLRKLRKRLL [COG133]	> 20	4.4 ± 1.5	binding to SET isoforms in CLL cell lysate [4]: binds to both SET isoforms
LLRKRLKRLHSALRVRL [COG056]	> 20	12.9 ± 4.6	
I: Ac-RQIKIWFQNRRMKWKKCLRVRLASHLRKLRKRLL-NH2 / II: Ac-RQIKIWFQNRRMKWKKCLRVRLASHLRKLRKRLL-NH2 (linker I:17-II:17 via BMOE) [COG449]			cytotoxicity in Ramos cells ([5]; 1 μM COG449, 24 hours): robust cytotoxic effect; cytotoxicity in Ramos cells with PP2A inhibitor ([5]; 1 μM COG449 after pretreatment with 1 nM OA, 24 hours): partially counteracted by treatment with OA; EC50 [1, 6]: 0.103 µM
AS(Aib)LRKL(Aib)KRLL (Ac-AS[Aib]LRKL[Aib]KRLL-NH2) [COG1410, Aib = aminoisobutyric acid]	> 20	5.7 ± 3	
oakadaic acid [reference compound]			cytotoxicity in Ramos cells ([5]; 1 nM OA alone, 24 hours): not cytotoxic
